The results in this text go back to patent US9597407B2, “Targeted antimicrobial moieties” (C3 Jian, Inc., priority 2009, dated 2017).

The subject of one assay is bacteria. Put plainly: Binding of targeting peptides to microorganisms (Table 3). To be noted: peptide binding in aqueous buffers varied by peptide solubility; preferably 1x PBS.
The next assay concerns microorganisms. The assay can be described thus: Morphology, biofilm and growth disruption by peptides (Table 5). The class given is cell-based. Details: key: A: Peptide aggregates; B: Less hyphal formation; Clumps; Diffuse clumps and small polyps; F: Diffuse growth; H: Thin; I: Growth inhibition; Microcolony formation; Rippled; Small polyps; Thick; W: Halo formation on top, microlonies on bottom. The source says: In certain embodiments peptides that induce alterations in phenotype or other biological activities can also be used as antimicrobial effector moieties.

“Also recorded” adds a separate entry of the source. Ends that are not written are not given here.

Consider “1T-3 (VLGIAGGLDAYGELVGGN; Peptide with targeting and/or antimicrobial activity) [Peptide 1T-3]”, for which, in the assay on bacteria, the “Target(s) (microorganism bound by the targeting peptide)” value was “S. mutans; also recorded: S. gordonii”.
For the substance “1T-4 (LDAYGELVGGN; Peptide with targeting and/or antimicrobial activity) [Peptide 1T-4]”, in the assay on bacteria, the “Target(s) (microorganism bound by the targeting peptide)” value is given as “S. gordonii; also recorded: S. sanguinis; also recorded: S. oxalis; also recorded: V. atypica; also recorded: L. casei; also recorded: S. mutans”.
For “1T-6 (KFINGVLSQFVLERK; Peptide with targeting and/or antimicrobial activity) [Peptide 1T-6]”, the “Target(s) (microorganism bound by the targeting peptide)” value in the assay on bacteria is listed as “S. mutans”.
Same read-out and setting: for “1T-7 (SQRIIEPVKSPQPYPGFSVS; Peptide with targeting and/or antimicrobial activity) [Peptide 1T-7]” the value was “M. xanthus”; for “1T-8 (FSVAACGEQRAVTFVLLIEDLI; Peptide with targeting and/or antimicrobial activity) [Peptide 1T-8]”, “M. xanthus”; for “1T-9 (WAWAESPRCVSTRSNIHALAFRVEVAALT; Peptide with targeting and/or antimicrobial activity) [Peptide 1T-9]”, “M. xanthus”.
On to “1T-10 (SPAGLPGDGDEA; Peptide with targeting and/or antimicrobial activity) [Peptide 1T-10]”, for which the “Target(s) (microorganism bound by the targeting peptide)” value in the assay with bacteria is given as “M. xanthus”.
“1T-11 (RISE; Peptide with targeting and/or antimicrobial activity) [Peptide 1T-11]”: the “Target(s) (microorganism bound by the targeting peptide)” value in the assay on bacteria is given as “S. mutans; also recorded: S. epidermidis; also recorded: P. aeruginosa”.
As to “1T-12 (FGNIFKGLKDVIETIVKWTAAK; Peptide with targeting and/or antimicrobial activity) [Peptide 1T-12]”, the “Target(s) (microorganism bound by the targeting peptide)” value with bacteria is reported as “C. xerosis; also recorded: C. striatum; also recorded: S. epidermidis; also recorded: S. mutans”.
The same measure, in the same setting: for “1T-13 (FRSPCINNNSLQPPGVYPAR; Peptide with targeting and/or antimicrobial activity) [Peptide 1T-13]” the value was “S. aureus; also recorded: S. epidermidis; also recorded: P. aeruginosa”; for “1T-14 (ALAGLAGLISGK; Peptide with targeting and/or antimicrobial activity) [Peptide 1T-14]”, “S. mutans; also recorded: S. aureus; also recorded: S. epidermidis; also recorded: C. xerosis”.
Same read-out and setting: for “1T-15 (DVILRVEAQ; Peptide with targeting and/or antimicrobial activity) [Peptide 1T-15]” the value was “S. mutans”.
Regarding “1T-16 (IDMR; Peptide with targeting and/or antimicrobial activity) [Peptide 1T-16]”, the “Target(s) (microorganism bound by the targeting peptide)” value with bacteria is on record as “P. aeruginosa”.
Turning to “1T-17 (NNAIVYIS; Peptide with targeting and/or antimicrobial activity) [Peptide 1T-17]”, the “Target(s) (microorganism bound by the targeting peptide)” value with bacteria is “S. mutans”.
For “1T-18 (YSKTLHFAD; Peptide with targeting and/or antimicrobial activity) [Peptide 1T-18]”, the “Target(s) (microorganism bound by the targeting peptide)” value in the assay with bacteria is given as “S. aureus; also recorded: S. epidermidis; also recorded: C. striatum; also recorded: P. aeruginosa”.
With “1T-19 (PGAFRNPQMPRG; Peptide with targeting and/or antimicrobial activity) [Peptide 1T-19]”, the “Target(s) (microorganism bound by the targeting peptide)” value with bacteria was “S. aureus; also recorded: S. epidermidis; also recorded: P. aeruginosa”.
Consider “1T-20 (PALVDLSNKEAVWAVLDDHS; Peptide with targeting and/or antimicrobial activity) [Peptide 1T-20]”, for which, in the assay with bacteria, the “Target(s) (microorganism bound by the targeting peptide)” value is on record as “S. mutans; also recorded: P. aeruginosa”.
Consider “PF-612 (GTTLKYGLERQLKIDIHPEITIINLNGGADEFAKL; Peptide with targeting and/or antimicrobial activity)”, for which the “Organism, effect (morphology, biofilm and growth disruption)” value in the assay with microorganisms (E. coli) is recorded as “E. coli (C)”; with microorganisms (M. luteus) it was “M. luteus (A)”; in the assay with microorganisms (MRSA) it was “MRSA (C)”; in the assay on microorganisms (P. mirabilis) it was “P. mirabilis (C)”; with microorganisms (S. epidermidis), “S. epidermidis (C)”; in the assay on microorganisms (S. mutans), “S. mutans (F)”. Moreover, in the assay with microorganisms (S. pneumoniae), the “Organism, effect (morphology, biofilm and growth disruption)” value is “S. pneumoniae (C)”.
In the case of “PF-615 (FLNRFIFYIFTVKTKSALIKNLFLD; Peptide with targeting and/or antimicrobial activity)”, the “Organism, effect (morphology, biofilm and growth disruption)” value was “C. jejuni (D)” in the assay on microorganisms (C. jejuni); “E. coli (C)” in the assay with microorganisms (E. coli); “E. faecalis (D)” with microorganisms (E. faecalis); “MRSA (D)” with microorganisms (MRSA); “S. epidermidis (D)” with microorganisms (S. epidermidis); “S. pneumoniae (D)” in the assay with microorganisms (S. pneumoniae).
As for “PF-618 (KLNTLNKKDNPSLNDQDKNAVLNLLALAK; Peptide with targeting and/or antimicrobial activity)”, the “Organism, effect (morphology, biofilm and growth disruption)” value with microorganisms (E. faecalis) is “E. faecalis (H)”; with microorganisms (S. pneumoniae), “S. pneumoniae (I)”.
In the case of “PF-624 (VFLLDSYCFVKINL; Peptide with targeting and/or antimicrobial activity)”, the “Organism, effect (morphology, biofilm and growth disruption)” value in the assay on microorganisms (E. coli) is “E. coli (C)”; in the assay with microorganisms (M. luteus) it was “M. luteus (C)”; with microorganisms (MRSA), “MRSA (C)”; in the assay on microorganisms (P. mirabilis) it was “P. mirabilis (C)”; with microorganisms (S. epidermidis) it was “S. epidermidis (D)”; in the assay on microorganisms (S. mutans), “S. mutans (D)”. Moreover, in the assay on microorganisms (S. pneumoniae), the “Organism, effect (morphology, biofilm and growth disruption)” value is recorded as “S. pneumoniae (D)”.
With “PF-630 (chain 1 IPATPIIHS; chain 2 IPATPIIHS; Peptide with targeting and/or antimicrobial activity)”, in the assay on microorganisms (MRSA), the “Organism, effect (morphology, biofilm and growth disruption)” value is given as “MRSA (M)”.
Consider “PF-634 (chain 1 MPKARPVNHNKKKSKITIKSNFTLFYMFNP; chain 2 MPKARPVNHNKKKSKITIKSNFTLFYMFNP; Peptide with targeting and/or antimicrobial activity)”, for which the “Organism, effect (morphology, biofilm and growth disruption)” value was “E. coli (C)” in the assay on microorganisms (E. coli); “M. luteus (C)” in the assay on microorganisms (M. luteus); “MRSA (D)” with microorganisms (MRSA); “P. mirabilis (C)” in the assay with microorganisms (P. mirabilis); “S. epidermidis (D)” in the assay on microorganisms (S. epidermidis); “S. mutans (D)” with microorganisms (S. mutans). In addition, the “Organism, effect (morphology, biofilm and growth disruption)” value with microorganisms (S. pneumoniae) is on record as “S. pneumoniae (D)”.
For “PF-670 (chain 1 TVIVAPMHSGV; chain 2 TVIVAPMHSGV; Peptide with targeting and/or antimicrobial activity)”, the “Organism, effect (morphology, biofilm and growth disruption)” value in the assay on microorganisms (B. subtilis) is on record as “B. subtilis (H)”; in the assay on microorganisms (S. pneumoniae) it was “S. pneumoniae (H)”.
“PF-C089 (MPKRHYYKLEAKALQFGLPFAYSPIQLLK; Peptide with targeting and/or antimicrobial activity)”: the “Organism, effect (morphology, biofilm and growth disruption)” value in the assay on microorganisms (P. gingivalis) is listed as “P. gingivalis (R)”.
As to “PF-C214 (GGHKQLVIEPLVSQ; Peptide with targeting and/or antimicrobial activity)”, in the assay on microorganisms (F. nucleatum), the “Organism, effect (morphology, biofilm and growth disruption)” value is recorded as “F. nucleatum (T)”.
As to “PF-C293 (IIIILPKIYLVCKTV; Peptide with targeting and/or antimicrobial activity)”, the “Organism, effect (morphology, biofilm and growth disruption)” value is on record as “F. nucleatum (T)” in the assay with microorganisms (F. nucleatum), “P. gingivalis (R)” in the assay on microorganisms (P. gingivalis) and “S. mutans (F)” in the assay with microorganisms (S. mutans).
As to RRGCTERLRRMARRNAWDLYAEHFY [PF-148], the “Organism, effect” value in the assay on microorganisms (B. subtilis) is given as “B. subtilis (I)”; in the assay with microorganisms (C. albicans), “C. albicans (B)”; in the assay with microorganisms (C. jeikeium), “C. jeikeium (H)”; in the assay with microorganisms (C. jejuni) it was “C. jejuni (H)”; with microorganisms (M. luteus), “M. luteus (A)”; in the assay on microorganisms (MRSA), “MRSA (C)”. Besides, the “Organism, effect” value with microorganisms (S. epidermidis) was “S. epidermidis (D)”; with microorganisms (S. pneumoniae), “S. pneumoniae (R)”.
On to SKFKVLRKIIIKEYKGELMLSIQKQR [PF-530], for which the “Organism, effect (morphology, biofilm and growth disruption)” value is “E. coli (R)” in the assay with microorganisms (E. coli); “E. faecalis (C)” in the assay with microorganisms (E. faecalis); “MRSA (C)” in the assay on microorganisms (MRSA); “S. epidermidis (H)” in the assay on microorganisms (S. epidermidis); “S. pneumoniae (R)” in the assay on microorganisms (S. pneumoniae).
Turning to “TKKIELKRFVDAFVKKSYENYILERELKKLIKAINEELPTK [PF-600]”, the “Organism, effect (morphology, biofilm and growth disruption)” value in the assay on microorganisms (E. coli) is recorded as “E. coli (H)”; in the assay on microorganisms (M. luteus), “M. luteus (C)”; in the assay on microorganisms (MRSA), “MRSA (M)”; with microorganisms (S. epidermidis) it was “S. epidermidis (C)”; with microorganisms (S. mutans), “S. mutans (S)”; in the assay on microorganisms (S. pneumoniae), “S. pneumoniae (R)”.
Regarding YIQFHLNQQPRPKVKKIKIFL-NH2 [PF-531], the “Organism, effect (morphology, biofilm and growth disruption)” value was “E. coli (M)” in the assay with microorganisms (E. coli), “P. aeruginosa (I)” in the assay on microorganisms (P. aeruginosa), “S. epidermidis (I)” in the assay with microorganisms (S. epidermidis) and “S. pneumoniae (C)” with microorganisms (S. pneumoniae).
